Read-outs that look alike come from different tables or passages of the source.
Experiments:
[1] = test system: T1, AChE (Bam population, susceptible); assay: Ellman microplate inhibition assay; format: biochemical, Agonoscena pistaciae; details: pH 7.0; 10 min preincubation at room temperature; thiocholine substrate and DTNB; covalent; read-out: I50
T1 construct: gene AChE1
Source text: Ellman microplate inhibition assay on AChE (Bam population, susceptible)

[2] = test system: T2, AChE (Rafsanjan population, resistant; modified AChE); details: read-out: I50, pH 7.0, 10 min preincubation at room temperature, thiocholine substrate and DTNB, covalent
T2 construct: gene AChE1
Source text: Ellman microplate inhibition assay on AChE (Rafsanjan population, resistant; modified AChE)

[3] = test system: T2, AChE (Rafsanjan population, resistant; modified AChE); details: DTNB; pH 7.0; 37°C; 405 nm; apparent, total AChE
Source text: Ellman microplate kinetics, Michaelis-Menten fit on AChE (Rafsanjan population, resistant; modified AChE)

[4] = test system: T1, AChE (Bam population, susceptible); assay: Ellman microplate kinetics, Michaelis-Menten fit; format: biochemical, Agonoscena pistaciae; details: DTNB; pH 7.0; 37°C; 405 nm; apparent, total AChE
Source text: Ellman microplate kinetics, Michaelis-Menten fit on AChE (Bam population, susceptible)

SMILES | IC50 [1] [µM] | IC50 [2] [µM] | IC50 ([2]; stated gain) [µM] | Km [3] [µM] | Km [4] [µM]
CNC(=O)Oc1cccc(C)c1 [MTMC, m-tolyl methyl carbamate] | 20430 ± 170 | 9450 ± 30 | – | – | –
CNC(=O)/C=C(\C)OP(=O)(OC)OC [monocrotophos] | 230 ± 10 | – | 5280 ± 40 | – | –
CCC(=O)SCC[N+](C)(C)C [PTC, propionylthiocholine iodide] | – | – | – | 4.1 ± 0.06 | 1.4 ± 0.11
CNC(=O)Oc1cccc2c1OC(C)(C)C2 [carbofuran] | 380 ± 10 | 160 ± 10 | – | – | –
CCCC(=O)SCC[N+](C)(C)C [BTC, butyrylthiocholine iodide] | – | – | – | – | 4.3 ± 0.14
CC(=O)SCC[N+](C)(C)C [ATC, acetylthiocholine iodide] | – | – | – | – | 1.25 ± 0.05
CNC(=O)Oc1cccc2ccccc12 [carbaryl] | 2360 ± 20 | 2050 ± 30 | – | – | –
CCN(CC)C(=O)C(Cl)=C(C)OP(=O)(OC)OC [phosphamidon] | 220 ± 10 | – | 4790 ± 20 | – | –
CNC(=O)Oc1ccccc1OC(C)C [propoxur] | 1060 ± 30 | 830 ± 10 | – | – | –
CNC(=O)O/N=C/C(C)(C)SC [aldicarb] | 2590 ± 20 | 2850 ± 60 | – | – | –

— paper PMC4199533, “Toxicological and biochemical characterizations of AChE in phosalone-susceptible and resistant populations of the common pistachio psyllid, Agonoscena pistaciae” (Journal of Insect Science, 2014)
